Measurements published in patent US20240140947A1, “COMPOUND FOR THE TREATMENT OF CANCER” (priority 2022, published 2024).
Where two headings read alike, the source gives them in different places.

Legend:
[1] = system: phosphorylation of Rb protein at serines 807/811 in OVCAR3 cells; assay: Phospho-Serine 807/811 Rb ELISA in OVCAR3 cells; format: cell-based; conditions: Homo sapiens, read-out: IC50 ± SEM, modulation of pRB Serine 807/811
Method: (§1) Cellular CDK activity of Compound 1 and PF-06873600 were assessed in human CCNE1-amplified ovarian cancer cell line model OVCAR3 and human ER+ breast cancer cell line model MCF7 cells. […] OVCAR3 cells were treated overnight with 1 mM hydroxyurea to enrich for G1/S phase cells prior to treatment with inhibitors. Functional effects were measured in a 7-day anti-proliferation assay in one human ovarian cancer (OVCAR3), two human ER+ breast cancer (MCF7 and T47D) and three human non-small cell lung cancer (NCIH2087, NCIH358 and A549) cell line models.
OVCAR3 or MCF7 cells were seeded at 25,000 cells/well in 100 μL growth media and allowed to adhere at 37° C. with 5% CO2 overnight. OVCAR3 cells were treated overnight with 1 mM hydroxyurea to enrich for G1/S phase cells prior to treatment with inhibitors. The following day, compounds were serially diluted from a 10 mM top dose for an 11-point 3-fold dilution curve in DMSO. Compound 1 and PF-06873600 were intermediately diluted 1:200 into growth media prior to diluting 1:5 on cells for final concentration 10 μM to 0.1 nM in 0.1% DMSO on cells. […] Plates were read in luminescence mode and IC50 values calculated.
The cellular activity of Compound 1 was evaluated in ER+, HER2− MCF7 cells and CCNE1-amplified ovarian carcinoma. Activity was determined by inhibition of phosphorylation of […]

T47D PalboR = assay: Cell proliferation assay (CYQUANT, 7 days), T47D PalboR; format: cell-based; conditions: Homo sapiens, 168 h, read-out: IC50 ± SEM, proliferation inhibition
Method: as §1
(§2) OVCAR3, MCF7, T47D, HCC1428, NCIH2087, NCIH358 or A549cells were seeded 1-3000 cells/well in 96-well plates in growth media containing 10% FBS and cultured overnight at 37° C. 5% CO2. […] CYQUANT Direct Cell Proliferation Assay (Molecular Probes, Eugene, OR) was then performed following manufacturer recommendations to determine the relative viable cell numbers on the Perkin Elmer Envision 2104 Multi Label Reader at 508 nm excitation and 527 nm emission wavelengths. IC50 values were calculated by concentration-response curve fitting utilizing a four-parameter analytical method using GraphPad Prism software.
(§3) The effect of Compound 1 on cell proliferation was assessed in multiple ER+ breast cancer cell lines, including parental and palbociclib resistant cell lines.

[2] = Dog i.v. pharmacokinetic study; format: in vivo; conditions: for Vd: dog, plasma, iv, 0.1 mg/kg, male Beagle dogs, read-out: Dog Vdss
Method: Dog PK studies were done at Pfizer (Groton, CT); animal care and in vivo procedures were conducted according to guidelines from the Pfizer Institutional Animal Care and Use Committee. Male Beagle dogs were purchased from Marshall BioResources (North Rose, New York) and were typically 1-5 years of age at the time of dosing. Compounds were administered i.v. via the cephalic vein (n=2), dosed as a solution using standard compatible excipients at 0.5 mL/kg for a resulting dose of 0.1 mg/kg. Serial blood samples were collected via the jugular vein at predetermined timepoints after dosing. Animals were monitored for pain or distress throughout the study, with at least daily monitoring during normal husbandry prior to study start. Blood samples were collected into tubes containing K3EDTA and stored on ice until centrifugation to obtain plasma, which was stored frozen at −20° C. or lower. Urine samples were collected at room temperature and stored frozen at −20° C. or lower at the end of each time interval. Plasma samples from the animal PK studies were processed using protein precipitation with acetonitrile: methanol (1:1) containing internal standard verapamil followed by quantitation by LC-MS/MS against a standard curve prepared in blank plasma. Pharmacokinetic parameters were calculated using noncompartmental analysis (Watson v.7.5, Thermo Scientific).

HCC1428 parental = assay: Cell proliferation assay (CYQUANT, 7 days), HCC1428 parental; format: cell-based; conditions: Homo sapiens, read-out: IC50 ± SEM, proliferation inhibition
Method: OVCAR3, MCF7, T47D, HCC1428, NCIH2087, NCIH358 or A549cells were seeded 1-3000 cells/well in 96-well plates in growth media containing 10% FBS and cultured overnight at 37° C. 5% CO2. The following day, compounds were serially diluted from a 10 mM top dose for an 11-point 3-fold dilution curve in DMSO. Compound 1 and PF-06873600 were intermediately diluted 1:200 into growth media prior to diluting 1:5 on cells for final concentration 10 μM to 0.1 nM in 0.1% DMSO on cells. Cells were incubated at 37° C. 5% CO2 for 7 days. CYQUANT Direct Cell Proliferation Assay (Molecular Probes, Eugene, OR) was then performed following manufacturer recommendations to determine the relative viable cell numbers on the Perkin Elmer Envision 2104 Multi Label Reader at 508 nm excitation and 527 nm emission wavelengths. IC50 values were calculated by concentration-response curve fitting utilizing a four-parameter analytical method using GraphPad Prism software.
as §3

[3] = Prediction of human clearance, volume of distribution and elimination half-life; conditions: for Mean Vdss unbound: (mean animal Vdss unbound values): Wistar-Hannover (rat), rat and/or dog, iv; for CLb: predicted total clearance: scaled from CLint HHEP and fub, Q=20 ml/min/kg
Method: To determine and compare the predicted human elimination half-lives, compounds 1-4 were evaluated for their human blood-to-plasma partition ratio (BPR) along with other key in vitro ADME data including metabolic stability in human hepatocytes (CL, nt HHEP).
The predicted total clearance in human (CLb) was first determined based on the in vitro human metabolism data shown below using the equation:
CLb=(Q·fub·CLintHHEP)/[(Q+fub)·CLintHHEP]
(Scaling Clint HHEP from μl/min/M to ml/min/kg based on hepatocellularity (120×10^6/ g liver), g of liver per Kg bodyweight (21g/Kg), assuming hepatocyte binding is negligible and liver blood flow Q=20 ml/min/kg.)
The projected human volume of distribution at steady state in human blood (Vdss_human) was then calculated based on the animal (rat and/or dog) PK data. The Vdss_human was calculated factoring in differences in blood binding across compounds. Due to the high blood-to-plasma partition ratio in Compounds 1 and 4, the corresponding Vdss_human was limited to the blood volume with Vdss_human estimated to be 0.07 L/Kg.
Using the estimates of CLb and Vdss_human, the predicted human elimination half-lives of compounds 1-4 were calculated according to the equation:
Half-life=0.693·Vdss_human/CLb

MCF7 PalboR = assay: Cell proliferation assay (CYQUANT, 7 days), MCF7 PalboR; format: cell-based; conditions: Homo sapiens, read-out: IC50 ± SEM, proliferation inhibition
Method: as §1, §2, §3

NCIH358 = assay: Cell proliferation assay (CYQUANT, 7 days), NCIH358; format: cell-based; conditions: Homo sapiens, NCI-H358, 168 h, read-out: IC50 ± SEM, proliferation inhibition
Method: as §1
as §2, with “CO2. The following day, compounds were serially diluted from a 10 mM top dose for an 11-point 3-fold dilution curve in DMSO.” for “CO2.”

For `C[C@@]1(O)CCC[C@H]1n1c(=O)c(CC(F)F)cc2cnc(NC3CCN(S(N)(=O)=O)CC3)nc21` [Compound 1, 4-({6-(2,2-difluoroethyl)-8-[(1R,2R)-2-hydroxy-2-methylcyclopentyl]-7-oxo-7,8-dihydropyrido[2,3-d]pyrimidin-2-yl}amino)piperidine-1-sulfonamide], which IC50 ([1]; OVCAR-3, OVCAR3, mean, treated 1 h after overnight 1 mM hydroxyurea) is on record?
Its IC50 is 16.2 nM.

And the IC50 (T47D PalboR; T47D PalboR, 7 days, mean)?
Its IC50 is 65.7 ± 8.8 nM.

And the “Dog Vdss unbound: (Dog Vdss/dog plasma fu)” value [2]?
Its value is 6.7 L/kg.

What about the Vd [2] of the same compound?
The Vd was 1.5 L/kg.

What about the IC50 (HCC1428 parental; 168 h, HCC1428 parental, 7 days, mean) of the same compound?
Its IC50 is 14.3 ± 4.4 nM.

And the “Mean Vdss unbound: (mean animal Vdss unbound values)” value [3]?
The value was 8.8 L/kg.

And the “(adjusted) predicted t1/2 based on PF-06873600's observed t1/2” value ([3]; human)?
Its value is 34 h.

And the “Vdss—human limited to the blood volume (lower limit)” value ([3]; human)?
The value was 0.07 L/kg.

What about the “Vdss—human: projected volume of distribution (steady state)” value ([3]; human) of the same compound?
Its value is 0.019 L/kg L/Kg.

What about the “CLb: predicted total clearance” value ([3]; human) of the same compound?
The value was 0.011 mL/min/kg.

And the IC50 (MCF7 PalboR; 168 h, MCF7 PalboR, 7 days, mean)?
The IC50 was 37.3 ± 2.8 nM.

And the IC50 (NCIH358; NCIH358, 7 days, mean)?
The IC50 was 21 ± 2.2 nM.

For `C[C@@]1(O)CCC[C@H]1n1c(=O)c(C(F)F)cc2cnc(NC3CCN(S(C)(=O)=O)CC3)nc21` [Compound 2, reference compound], which IC50 ([1]; OVCAR-3, 1 h) is on record?
The IC50 was 21.8 nM.

What about the IC50 (T47D PalboR; T47D) of the same compound?
Its IC50 is 253 ± 55.1 nM.

And the “Dog Vdss unbound: (Dog Vdss/dog plasma fu)” value [2]?
Its value is 2.8 L/kg.

What about the Vd [2] of the same compound?
The Vd was 1.1 L/kg.

What about the IC50 (HCC1428 parental; HCC1428, 168 h) of the same compound?
The IC50 was 96.7 ± 26.4 nM.

And the “Mean Vdss unbound: (mean animal Vdss unbound values)” value [3]?
Its value is 2.8 L/kg.

What about the “Vdss—human: projected volume of distribution (steady state)” value ([3]; human) of the same compound?
The value was 0.9 L/kg.

What about the “CLb: predicted total clearance” value ([3]; human) of the same compound?
Its value is 1.5 mL/min/kg.

What about the IC50 (MCF7 PalboR; MCF7, 168 h) of the same compound?
Its IC50 is 111 ± 56.1 nM.

And the IC50 (NCIH358)?
The IC50 was 39 nM.
